Target: Estrogen receptor (Homo sapiens) (UniProt P03372)
Assay: inhibitors of estradiol-driven ERα reporter activity – HEC-1 cells, luciferase reporter, 1 nM E2, orthogonal assay for ERα coactivator binding inhibitor project, dose response (AID 1078)
Conditions: ERE-luciferase reporter, 1 nM E2, 24 h

Estrogen receptor (Homo sapiens), sequence (P03372 whole entry, looked up): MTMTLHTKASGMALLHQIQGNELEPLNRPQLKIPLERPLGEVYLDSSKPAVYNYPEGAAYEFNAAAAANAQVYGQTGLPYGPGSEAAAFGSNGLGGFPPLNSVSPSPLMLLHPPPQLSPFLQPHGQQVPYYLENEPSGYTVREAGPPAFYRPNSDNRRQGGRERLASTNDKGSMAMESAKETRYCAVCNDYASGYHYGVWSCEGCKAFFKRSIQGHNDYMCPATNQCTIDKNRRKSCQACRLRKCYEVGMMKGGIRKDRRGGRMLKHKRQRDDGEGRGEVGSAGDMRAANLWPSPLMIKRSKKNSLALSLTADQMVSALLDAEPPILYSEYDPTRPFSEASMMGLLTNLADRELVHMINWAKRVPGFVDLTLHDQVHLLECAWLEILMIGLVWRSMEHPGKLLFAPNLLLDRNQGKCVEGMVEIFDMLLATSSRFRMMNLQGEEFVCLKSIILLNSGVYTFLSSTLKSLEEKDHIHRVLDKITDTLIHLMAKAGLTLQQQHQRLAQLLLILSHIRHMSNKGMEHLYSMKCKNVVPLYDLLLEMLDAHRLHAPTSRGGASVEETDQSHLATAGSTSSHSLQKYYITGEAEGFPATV

IC50: 4.65 µM
Structure (SMILES): Cc1ccc(-n2c(=O)c(C#N)cc3c(=O)n4cccc(C)c4nc32)cc1
